Source: ChEMBL document CHEMBL1201862, “PubChem BioAssay data set” (2004)
The source made the active and inactive calls.

What was measured:
Beta-galactosidase = Beta-galactosidase (Escherichia coli, UniProt Q8VNN2); assay: Dose response counterscreen for EBI2 assay utilizing the enzyme, b-galactosidase.; format: functional
[1] = molecular target: Kappa-type opioid receptor (Homo sapiens, UniProt P41145); format: functional
[2] = molecular target: T1, ATP-dependent translocase ABCB1 (Homo sapiens, UniProt P08183); assay: P-gp JC-1 efflux blockade concentration-response – Jurkat-DNR cells, flow cytometry, set 2, dose response (AID 504569); format: functional; conditions: read-out: EC50_MICROM_;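 further: potency of pump inhibitors that raise cellular JC-1 green fluorescence up to the nicardipine level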
T1 sequence (P08183 whole entry): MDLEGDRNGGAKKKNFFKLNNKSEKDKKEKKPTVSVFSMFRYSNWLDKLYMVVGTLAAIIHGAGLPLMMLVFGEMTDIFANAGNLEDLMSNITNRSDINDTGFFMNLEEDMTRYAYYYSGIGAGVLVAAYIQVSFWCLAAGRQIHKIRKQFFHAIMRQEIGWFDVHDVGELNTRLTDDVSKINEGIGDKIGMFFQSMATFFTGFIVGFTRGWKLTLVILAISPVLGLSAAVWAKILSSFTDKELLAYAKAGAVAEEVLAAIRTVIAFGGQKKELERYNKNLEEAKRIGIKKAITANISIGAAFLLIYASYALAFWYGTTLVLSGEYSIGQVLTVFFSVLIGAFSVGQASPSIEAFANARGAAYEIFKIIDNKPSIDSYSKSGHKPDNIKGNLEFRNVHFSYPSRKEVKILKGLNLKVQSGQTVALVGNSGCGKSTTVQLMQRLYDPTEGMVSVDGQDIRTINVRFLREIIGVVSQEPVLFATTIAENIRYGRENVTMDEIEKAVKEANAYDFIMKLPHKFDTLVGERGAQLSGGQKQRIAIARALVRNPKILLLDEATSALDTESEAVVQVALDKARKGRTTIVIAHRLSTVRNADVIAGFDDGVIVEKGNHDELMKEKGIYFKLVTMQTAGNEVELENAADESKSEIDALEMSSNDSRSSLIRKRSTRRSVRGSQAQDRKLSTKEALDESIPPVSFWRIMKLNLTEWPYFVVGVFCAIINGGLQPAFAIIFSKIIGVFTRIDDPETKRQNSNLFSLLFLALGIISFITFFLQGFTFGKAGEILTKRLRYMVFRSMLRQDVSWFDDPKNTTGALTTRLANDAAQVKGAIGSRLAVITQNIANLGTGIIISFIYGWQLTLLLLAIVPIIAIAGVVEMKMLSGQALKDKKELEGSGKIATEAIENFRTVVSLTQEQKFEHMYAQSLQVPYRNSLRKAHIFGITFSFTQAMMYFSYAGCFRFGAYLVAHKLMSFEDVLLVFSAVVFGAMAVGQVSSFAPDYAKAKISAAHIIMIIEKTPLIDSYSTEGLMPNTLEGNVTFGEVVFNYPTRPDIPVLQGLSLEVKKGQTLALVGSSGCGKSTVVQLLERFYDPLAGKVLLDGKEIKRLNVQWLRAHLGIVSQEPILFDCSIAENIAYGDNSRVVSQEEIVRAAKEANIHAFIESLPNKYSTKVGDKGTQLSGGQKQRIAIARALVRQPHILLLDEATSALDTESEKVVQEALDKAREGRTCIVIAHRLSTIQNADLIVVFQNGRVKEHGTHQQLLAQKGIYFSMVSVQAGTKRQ

[3] = molecular target: T1, ATP-dependent translocase ABCB1; assay: inhibition of BCRP-mediated JC-1 efflux – Ig-MXP3 cells, flow cytometry, set 2, dose response (AID 504566); format: functional; conditions: read-out: EC50_MICROM_;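 further: flow cytometry median green fluorescence of retained JC-1 dye; potency of efflux pump inhibition measured as rising substrate retention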
Vero = assay: viability loss in Vero cells – cell-based, plate reader, cherry-pick samples, cytotoxicity control, dose response (AID 687020); format: functional; conditions: Chlorocebus sabaeus
A549 = assay: viability loss in A549 cells – cell-based, plate reader, cherry-pick samples, cytotoxicity control, dose response (AID 687028); format: functional; conditions: Homo sapiens
HEK293 = assay: viability loss in HEK293T cells – cell-based, ATP luminescence, cherry-pick samples, cytotoxicity control, dose response (AID 687005); format: functional; conditions: Homo sapiens;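 further: cells exposed to compound for 48 hours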
[4] = HEK293 Cytotoxicity Assay Measured in Cell-Based System Using Plate Reader - 7071-01_Inhibitor_Dose_CherryPick_Activity_Set2.; format: functional
[5] = Dd2 malaria parasite growth inhibition potency – SYBR Green, dry powder samples, dose response (AID 1159566); format: functional, cell-based;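 further: potency for growth inhibition with lower SYBR green DNA signal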
[6] = growth inhibition of PfATP4-mutant resistant parasites – NITD609-resistant line, SYBR Green, dry powder, dose response (AID 1159571); format: functional, cell-based;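 further: parasites synchronized at ring stage by sorbitol before testing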
[7] = growth inhibition of yeast DHODH-expressing 3D7 parasites – SYBR Green, dry powder samples, dose response (AID 1159570); format: functional, cell-based;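 further: parasite growth measured after 72 hours of compound exposure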
[8] = toxicity to human HepG2 hepatoma cells – cell-based, plate reader, dry powder samples, cytotoxicity control, dose response (AID 1159569); format: functional;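 further: inhibitor potency with signal falling toward the positive control level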
HeLa = assay: viability loss in HeLa cells – cell-based, ATP luminescence, cherry-pick samples, cytotoxicity control, dose response (AID 687004); format: functional; conditions: Homo sapiens
[9] = HeLa cell viability loss – 24 h, dry powder, set 2, cytotoxicity control, dose response (AID 651774); format: functional, cell-based
Protein Wnt-3a = Protein Wnt-3a (Mus musculus, UniProt P27467); assay: SAR analysis of small molecule antagonists of Gli-SUFU in a Wnt3a luminescent reporter assay.; format: functional
Sequence of Protein Wnt-3a (P27467 whole entry): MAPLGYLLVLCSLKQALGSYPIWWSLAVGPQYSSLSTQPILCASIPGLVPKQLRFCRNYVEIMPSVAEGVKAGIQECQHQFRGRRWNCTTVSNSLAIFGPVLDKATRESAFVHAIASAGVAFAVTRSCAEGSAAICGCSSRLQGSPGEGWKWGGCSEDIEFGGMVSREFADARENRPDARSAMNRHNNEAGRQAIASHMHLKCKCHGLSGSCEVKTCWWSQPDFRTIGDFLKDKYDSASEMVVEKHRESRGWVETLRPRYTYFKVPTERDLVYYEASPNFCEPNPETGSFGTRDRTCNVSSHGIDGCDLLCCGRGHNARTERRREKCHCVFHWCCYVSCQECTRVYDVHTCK

[10] = inhibition of bursicon-driven LGR2 cAMP signaling – cell-based, HEK293, CRE-luciferase reporter, cherry pick, dose response (AID 743342); format: functional
[11] = blockade of melanocortin 4 receptor signaling – cell-based, plate reader, cherry pick, counter-screen for LGR2 antagonist project, dose response (AID 743444); format: functional;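 further: transfected HEK 293 cells stimulated with alpha-MSH peptide; potency of inhibitors of the alpha-MSH evoked signal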
[12] = potency of ADAM10 substrate cleavage blockers – biochemical, QFRET, dose response (AID 743254);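 further: ADAM10 enzyme with the DM2 quenched FRET peptide as substrate; EDANS fluorescence gain as the protease cuts the substrate; inhibitor potency against ADAM10 proteolytic activity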
[13] = molecular target: Disintegrin and metalloproteinase domain-containing protein 17 (Homo sapiens, UniProt P78536); assay: inhibition of ADAM17 substrate cleavage – biochemical, quenched FRET substrate, counter-screen for ADAM10 exosite inhibitor project, dose response (AID 743253)
Sequence of Disintegrin and metalloproteinase domain-containing protein 17 (P78536 whole entry, the tested form may be a part): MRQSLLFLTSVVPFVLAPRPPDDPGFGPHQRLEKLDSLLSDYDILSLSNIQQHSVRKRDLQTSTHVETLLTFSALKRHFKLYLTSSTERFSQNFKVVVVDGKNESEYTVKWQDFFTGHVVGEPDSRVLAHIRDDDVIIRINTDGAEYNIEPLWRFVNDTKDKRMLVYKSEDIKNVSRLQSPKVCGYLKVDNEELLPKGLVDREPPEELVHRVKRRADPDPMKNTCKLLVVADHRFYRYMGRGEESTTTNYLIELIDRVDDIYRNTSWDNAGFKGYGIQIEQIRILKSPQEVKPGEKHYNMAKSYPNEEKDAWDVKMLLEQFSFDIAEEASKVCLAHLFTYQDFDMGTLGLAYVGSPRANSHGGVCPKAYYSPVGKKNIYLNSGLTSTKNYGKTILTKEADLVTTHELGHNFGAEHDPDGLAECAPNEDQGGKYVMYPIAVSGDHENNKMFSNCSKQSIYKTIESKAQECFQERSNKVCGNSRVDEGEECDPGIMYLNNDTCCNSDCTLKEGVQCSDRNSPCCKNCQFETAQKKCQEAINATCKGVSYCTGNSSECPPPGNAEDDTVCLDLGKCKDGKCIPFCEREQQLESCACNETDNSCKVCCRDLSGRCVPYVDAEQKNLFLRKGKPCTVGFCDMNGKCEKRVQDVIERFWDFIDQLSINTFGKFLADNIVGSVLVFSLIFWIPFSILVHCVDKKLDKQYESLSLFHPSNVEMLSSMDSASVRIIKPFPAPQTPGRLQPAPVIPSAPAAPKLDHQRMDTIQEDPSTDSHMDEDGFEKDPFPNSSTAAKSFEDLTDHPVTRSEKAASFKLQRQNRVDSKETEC

Sequence of Beta-galactosidase (Q8VNN2 whole entry): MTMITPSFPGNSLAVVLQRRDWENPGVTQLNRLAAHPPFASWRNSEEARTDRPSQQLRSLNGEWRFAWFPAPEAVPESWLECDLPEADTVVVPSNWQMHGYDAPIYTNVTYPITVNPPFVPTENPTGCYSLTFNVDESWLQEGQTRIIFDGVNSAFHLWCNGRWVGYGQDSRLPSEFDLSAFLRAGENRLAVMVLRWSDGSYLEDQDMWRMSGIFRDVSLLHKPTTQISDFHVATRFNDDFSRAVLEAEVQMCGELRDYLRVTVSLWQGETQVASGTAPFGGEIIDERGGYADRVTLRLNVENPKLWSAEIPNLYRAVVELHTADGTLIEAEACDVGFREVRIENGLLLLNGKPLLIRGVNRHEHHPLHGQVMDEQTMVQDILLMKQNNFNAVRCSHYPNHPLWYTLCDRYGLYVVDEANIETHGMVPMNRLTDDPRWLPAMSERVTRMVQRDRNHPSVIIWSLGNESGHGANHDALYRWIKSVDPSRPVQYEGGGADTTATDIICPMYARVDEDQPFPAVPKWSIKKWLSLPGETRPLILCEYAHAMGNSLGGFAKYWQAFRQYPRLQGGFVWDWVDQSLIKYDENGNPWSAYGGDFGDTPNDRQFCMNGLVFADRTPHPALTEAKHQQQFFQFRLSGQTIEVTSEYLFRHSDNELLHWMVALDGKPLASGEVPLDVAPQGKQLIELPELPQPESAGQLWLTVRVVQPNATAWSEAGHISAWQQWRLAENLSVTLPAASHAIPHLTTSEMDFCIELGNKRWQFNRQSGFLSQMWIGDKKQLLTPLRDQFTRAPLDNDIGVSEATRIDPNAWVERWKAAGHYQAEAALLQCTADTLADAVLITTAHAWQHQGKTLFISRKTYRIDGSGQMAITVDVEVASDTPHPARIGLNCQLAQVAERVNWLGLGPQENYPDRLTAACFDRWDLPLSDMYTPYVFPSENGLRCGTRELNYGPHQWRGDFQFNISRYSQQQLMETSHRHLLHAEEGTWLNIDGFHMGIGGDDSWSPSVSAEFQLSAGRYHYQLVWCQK
Sequence of Kappa-type opioid receptor (P41145 whole entry): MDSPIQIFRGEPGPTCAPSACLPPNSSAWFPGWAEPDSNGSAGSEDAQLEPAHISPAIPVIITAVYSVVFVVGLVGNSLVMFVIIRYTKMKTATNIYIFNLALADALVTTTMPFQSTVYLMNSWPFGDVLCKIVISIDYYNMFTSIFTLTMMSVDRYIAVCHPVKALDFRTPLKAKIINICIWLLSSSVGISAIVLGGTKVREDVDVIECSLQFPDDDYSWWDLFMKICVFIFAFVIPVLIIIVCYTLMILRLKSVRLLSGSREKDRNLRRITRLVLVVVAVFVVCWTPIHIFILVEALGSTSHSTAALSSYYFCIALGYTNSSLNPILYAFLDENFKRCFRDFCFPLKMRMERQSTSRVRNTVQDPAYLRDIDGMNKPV

With `CC1(C)CC(=O)C(=CNc2ncccc2/N=C/C2=C(O)CC(C)(C)CC2=O)C(=O)C1` the IC50 (Beta-galactosidase) was 1.23 µM (active) and the IC50 [1] was < 0.98 µM (inactive).

For `CC(=O)N1CCN(c2cc(-c3ccccc3)nc3cc(-c4cccc(Cl)c4)nn23)CC1`, the EC50 [2] was 4.1 µM (active) and the EC50 [3] was 5.55 µM (active).

With `COC(=O)N1CCCCC1c1cc(C(=O)Nc2ccc(OC)cc2C)no1` (centres undefined) the AC50 (Vero) was 34.5 µM (active).

For `C[C@@H]1CCCCO[C@H](CN(C)Cc2ccc(Cl)c(Cl)c2)[C@H](C)CN([C@@H](C)CO)C(=O)c2cc(NC(=O)c3ccccc3)ccc2O1`, the AC50 (A549) was 31.5 µM (active).

In the case of `N#C[C@H]1[C@@H](c2ccc(C#CCC3CCCC3)cc2)[C@@H](CO)N1C(=O)c1ccccn1`, the AC50 (HEK293) is reported as 15.7 µM (active), the AC50 [4] is reported as 15.7 µM (active) and the AC50 [5] is reported as 0.851 µM (active). The AC50 [6] was 1.44 µM (active), the AC50 [7] was 1.73 µM (active) and the AC50 [8] was 46.9 µM (active). The AC50 (HeLa) was 27.8 µM (active).

In the case of `Cn1nnnc1NCc1ccc(C(F)(F)F)cc1`, the AC50 [9] is reported as > 70 µM (inactive).

With `O=C(Nc1cc(N2CCCCC2)ncn1)c1ccc(C(F)(F)F)cc1` the IC50 (Protein Wnt-3a) was > 21.8 µM (inactive).

For `C[C@H](CO)N1C[C@H](C)[C@H](CN(C)C(=O)Nc2ccc(F)cc2)OCCCC[C@H](C)Oc2ccc(NC(=O)C3CCCCC3)cc2C1=O`, the AC50 [10] was 1.82 µM (active) and the AC50 [11] was 65.8 µM (active).

In the case of `COc1ccc(C(=O)N/N=C/c2ccc(OC)c(COc3ccccc3)c2)cc1`, the IC50 [12] is reported as > 69.5 µM (inactive) and the IC50 [13] is reported as > 69.5 µM (inactive).
